From US5679787A, “Process for isomerization of compound of aldose structure into compound of ketose structure, and isomerization agent or accelerator used therein” (priority 1992, dated 1997)

Key:
glucose isomerase = assay: Enzymatic isomerization of glucose into fructose in presence of organogermanium compound (Example 1); format: biochemical, Streptomyces griseofuscus S-41; conditions: 60° C., pH 8.0, substrate solution 40% glucose and 1.2M organogermanium compound, blank 50%
Protocol: A solution containing 40% glucose and 1.2M organogermanium compound was prepared according to the following procedure. 0.8 g of anhydrous glucose was dissolved in 0.8 ml of deionized water. To the solution was added, in small portions, 0.407 g of the organogermanium compound (1) as an isomerization accelerator of the present invention [a compound represented by formula (II) wherein n=1, R1 =R2 =R3 and X1 =OH] while the pH of the solution was maintained at very weak alkalinity, to completely dissolve the compound in the solution. Thereto was added 4.9 mg of magnesium sulfate, and the pH of the resulting mixture was adjusted to 8.0. Then, deionized water was added to make the total volume 2.0 ml, whereby a substrate solution was prepared.
Two other substrate solutions containing the organogermanium compounds (18) [a compound represented by formula (II) wherein n=1, R1 =R2 =H, R3 =NH2 and X1 =OH] and (23) [a compound represented by formula (II) wherein n=1, R1 =H, R2 =C6 H5, R3 =NH2 and X1 =OH], respectively, were prepared in the same manner as above except that the organogermanium compounds (18) and (23) were used in amounts of 0.443 g and 0.638 g, respectively (these amounts corresponded to 1.2M of germanium).
An isomerization enzyme (glucose isomerase) extracted from the cells of Streptomyces griseofuscus S-41 was purified according to a known method using an ion exchange column, a gel filtration column or the like, until a single band was obtained electrophoretically. The resulting purified enzyme was used as a standard enzyme.
In a small test tube were placed 0.7 ml of the above substrate solution, 0.1 ml of a 200 mM MOPS buffer solution (pH 8.0) and 0.2 ml of a solution containing the above-prepared standard enzyme (5.69 mg/ml). […] The amount of formed fructose in the microvial was determined by high-performance liquid chromatography using a column [LC7A, SCR-101 (N) manufactured by Shimadzu Corp.] to examine the change with time, of ratio of isomerization of glucose into fructose.

[1] = Isomerization of glucose without enzyme, weakly alkaline electrolytic water or NaOH (Example 2)
Protocol: Water was passed through an apparatus for electrolysis [e.g. Microcluster (trade name) manufactured by Asahi Glass Co., Ltd.]. The alkaline portion of the resulting electrolytic water was taken to use as a weakly alkaline electrolytic water.
14 g or 28 g of anhydrous glucose was dissolved in about 80 ml of the weakly alkaline electrolytic water prepared above. The same electrolytic water was further added to make the total volume 100 ml, whereby a 14% glucose solution and a 28% glucose solution were prepared. The 14% glucose solution had pH 9.1 and the 28% glucose solution had pH 8.61, right after the preparation.
1.847 g of the organogermanium compound (18) was weighed and added to about 2 ml of deionized water. The mixture was made weakly alkaline (pH 8.00 or 8.53) with a small amount of sodium hydroxide. The same deionized water was further added to make the total volume of 3 ml. The final concentration of the compound (18) in the solution was 1.67M.
(§1) 200 μl of the 14% or 28% glucose solution and 200 μl of the organogermanium compound solution (pH 8.00 or 8.53) were placed in a small test tube. Also, 200 μl of the 14% or 28% glucose solution and 200 μl of the weakly alkaline electrolytic water were placed in a small test tube. Each test tube was thoroughly shaken and then placed in a water bath of 80° C. to give rise to a reaction. 1-3 hours later, 50 μl of the reaction mixture was added to 50 μl of 0.5N HClO4 to terminate the reaction. Thereafter, the mixture was diluted 100-fold with deionized water to determine the amount of formed fructose and the amount of residual glucose by high-performance liquid chromatography using 7A (a column) manufactured by Shimadzu Corp.

[2] = Isomerization without enzyme (Example 3), ribose; conditions: remark (2): reaction time 6 h, initial pH 10.0-10.6; for Isomerization ratio Ribose NaOH: blank 3.9-19.5%; for Isomerization ratio Ribose Electrolytic water: blank 0.4-1.2%
[3] = Isomerization without enzyme (Example 3), lactose; conditions: remark (3): reaction time 6 h, initial pH 10.0-11.0; for Isomerization ratio Lactose NaOH: blank 34.0-38.6%; for Isomerization ratio Lactose Electrolytic water: blank 0-0.4%
[4] = Isomerization without enzyme (Example 3), glucose; conditions: remark (1): initial pH 8.0-8.53; for Isomerization ratio Glucose NaOH: blank 32.3%; for Isomerization ratio Glucose Electrolytic water: blank 2.1-3.1%
Protocol: as §1, with “1-3 hours later, 50 μl of the reaction mixture was added to 50 μl of 0.5N HClO4 to terminate the reaction.” left out, “Corp. […]” for “Corp.”

[5] = Isomerization without enzyme (Example 3), arabinose; conditions: remark (2):, initial pH 10.0-10.6; for Isomerization ratio Arabinose NaOH: blank 3.9-19.5%; for Isomerization ratio Arabinose Electrolytic water: blank 0.4-1.2%
[6] = Isomerization without enzyme (Example 3), maltose; conditions: remark (3): reaction time 6 h, initial pH 10.0-11.0; for Isomerization ratio Maltose NaOH: blank 34.0-38.6%; for Isomerization ratio Maltose Electrolytic water: blank 0-0.4%
[7] = Isomerization without enzyme (Example 3), mannose; conditions: remark (2): reaction time 6 h, initial pH 10.0-10.6; for Isomerization ratio Mannose NaOH: blank 3.9-19.5%; for Isomerization ratio Mannose Electrolytic water: blank 0.4-1.2%
[8] = Isomerization without enzyme (Example 3), xylose; conditions: remark (2): reaction time 6 h, initial pH 10.0-10.6; for Isomerization ratio Xylose NaOH: blank 3.9-19.5%; for Isomerization ratio Xylose Electrolytic water: blank 0.4-1.2%
Protocol: [The procedure below names another target; the source says it served here with some conditions changed.] as §1
Other compounds represented by formula (I) were subjected to 3-hour isomerization in the same manner as in Example 2.

SMILES: NC(C(=O)O)[CH](c1ccccc1)[Ge](=[O])[O][Ge](=[O])[CH](c1ccccc1)C(N)C(=O)O (centres unmarked) [Compound 23]
- isomerization ratio in equilibrium (glucose isomerase): 99%

SMILES: NC([CH2][Ge](=[O])[O][Ge](=[O])[CH2]C(N)C(=O)O)C(=O)O (centres unmarked) [Compound 18]
- isomerization ratio in equilibrium (glucose isomerase): 80%
- Isomerization ratio (%) ([1]; Run 1 (Ge), glucose concentration 14%, pH of reaction mixture 7.17, electrolytic water, 80° C., 1-3 hours): 48.0%
- Isomerization ratio (%) ([1]; Run 3 (Ge), glucose concentration 7%, pH of reaction mixture 7.52, electrolytic water, 80° C., 1-3 hours): 73.1%
- Isomerization ratio (%) ([1]; Run 5 (Ge), glucose concentration 14%, pH of reaction mixture 7.81, electrolytic water, 80° C., 1-3 hours): 65.0%
- Isomerization ratio (%) ([1]; Run 7 (Ge), glucose concentration 7%, pH of reaction mixture 8.15, electrolytic water, 80° C., 1-3 hours): 94.7%
- Isomerization ratio (%) ([1]; Run 9 (Na, Ge), sodium hydroxide, glucose concentration 14%, pH of reaction mixture 8.61, 80° C.): 98.9%

SMILES: O=C(O)C[CH](c1ccccc1)[Ge](=[O])[O][Ge](=[O])[CH](CC(=O)O)c1ccccc1 (centres unmarked) [Compound 6]
- Isomerization ratio Ribose NaOH [2]: 40.1%
- Isomerization ratio Ribose Electrolytic water [2]: 11.3%
- Isomerization ratio Lactose NaOH [3]: 73.6%
- Isomerization ratio Lactose Electrolytic water [3]: 15.5%
- Isomerization ratio Glucose NaOH [4]: 94.8%
- Isomerization ratio Glucose Electrolytic water [4]: 83.8%
- Isomerization ratio Arabinose NaOH [5]: 24.4%
- Isomerization ratio Arabinose Electrolytic water [5]: 13.4%
- Isomerization ratio Maltose NaOH [6]: 69.3%
- Isomerization ratio Maltose Electrolytic water [6]: 20.0%
- Isomerization ratio Mannose NaOH [7]: 22.8%
- Isomerization ratio Mannose Electrolytic water [7]: 16.4%
- Isomerization ratio Xylose NaOH [8]: 33.2%
- Isomerization ratio Xylose Electrolytic water [8]: 8.3%

SMILES: C[C](C)(CC(=O)O)[Ge](=[O])[O][Ge](=[O])[C](C)(C)CC(=O)O [Compound 5]
- Isomerization ratio Ribose NaOH [2]: 37.6%
- Isomerization ratio Ribose Electrolytic water [2]: 8.6%
- Isomerization ratio Lactose NaOH [3]: 68.8%
- Isomerization ratio Lactose Electrolytic water [3]: 17.2%
- Isomerization ratio Glucose NaOH [4]: 93.4%
- Isomerization ratio Glucose Electrolytic water [4]: 75.3%
- Isomerization ratio Arabinose NaOH [5]: 17.8%
- Isomerization ratio Arabinose Electrolytic water [5]: 3.4%
- Isomerization ratio Maltose NaOH [6]: 69.4%
- Isomerization ratio Maltose Electrolytic water [6]: 38.4%
- Isomerization ratio Mannose NaOH [7]: 20.5%
- Isomerization ratio Mannose Electrolytic water [7]: 9.7%
- Isomerization ratio Xylose NaOH [8]: 20.3%
- Isomerization ratio Xylose Electrolytic water [8]: 6.1%

SMILES: C[CH](CC(=O)O)[Ge](=[O])[O][Ge](=[O])[CH](C)CC(=O)O (centres unmarked) [Compound 2]
- Isomerization ratio Ribose NaOH [2]: 41.8%
- Isomerization ratio Ribose Electrolytic water [2]: 12.8%
- Isomerization ratio Lactose NaOH [3]: 68.3%
- Isomerization ratio Lactose Electrolytic water [3]: 43.4%
- Isomerization ratio Glucose NaOH [4]: 97.9%
- Isomerization ratio Glucose Electrolytic water [4]: 95.8%
- Isomerization ratio Arabinose NaOH [5]: 20.3%
- Isomerization ratio Arabinose Electrolytic water [5]: 10.1%
- Isomerization ratio Maltose NaOH [6]: 67.4%
- Isomerization ratio Maltose Electrolytic water [6]: 44.4%
- Isomerization ratio Mannose NaOH [7]: 22.6%
- Isomerization ratio Mannose Electrolytic water [7]: 11.4%
- Isomerization ratio Xylose NaOH [8]: 20.3%
- Isomerization ratio Xylose Electrolytic water [8]: 7.2%

SMILES: CC([CH2][Ge](=[O])[O][Ge](=[O])[CH2]C(C)C(=O)O)C(=O)O (centres unmarked) [Compound 3]
- Isomerization ratio Ribose NaOH [2]: 30.0%
- Isomerization ratio Ribose Electrolytic water [2]: 17.4%
- Isomerization ratio Lactose NaOH [3]: 74.1%
- Isomerization ratio Lactose Electrolytic water [3]: 28.9%
- Isomerization ratio Glucose NaOH [4]: 96.3%
- Isomerization ratio Glucose Electrolytic water [4]: 86.2%
- Isomerization ratio Arabinose NaOH [5]: 18.5%
- Isomerization ratio Arabinose Electrolytic water [5]: 10.2%
- Isomerization ratio Maltose NaOH [6]: 53.7%
- Isomerization ratio Maltose Electrolytic water [6]: 43.7%
- Isomerization ratio Mannose NaOH [7]: 21.3%
- Isomerization ratio Mannose Electrolytic water [7]: 9.3%
- Isomerization ratio Xylose NaOH [8]: 24.5%
- Isomerization ratio Xylose Electrolytic water [8]: 7.6%

SMILES: CC(C(=O)O)[CH](C)[Ge](=[O])[O][Ge](=[O])[CH](C)C(C)C(=O)O (centres unmarked) [Compound 4]
- Isomerization ratio Ribose NaOH [2]: 36.3%
- Isomerization ratio Ribose Electrolytic water [2]: 10.3%
- Isomerization ratio Lactose NaOH [3]: 66.4%
- Isomerization ratio Lactose Electrolytic water [3]: 17.7%
- Isomerization ratio Glucose NaOH [4]: 96.4%
- Isomerization ratio Glucose Electrolytic water [4]: 77.6%
- Isomerization ratio Arabinose NaOH [5]: 14.3%
- Isomerization ratio Arabinose Electrolytic water [5]: 7.0%
- Isomerization ratio Maltose NaOH [6]: 46.5%
- Isomerization ratio Maltose Electrolytic water [6]: 36.2%
- Isomerization ratio Mannose NaOH [7]: 22.4%
- Isomerization ratio Mannose Electrolytic water [7]: 10.6%
- Isomerization ratio Xylose NaOH [8]: 22.3%
- Isomerization ratio Xylose Electrolytic water [8]: 7.0%
